# Measured values from paper PMC12064818, “A general assay platform to study protein pharmacology using ligand-dependent structural dynamics” (Nature Communications, 2025).
# Target: T1, Nano luciferase (NLuc) (Oplophorus gracilirostris, UniProt Q9GV45, A31E/A60N/A81I/F95D/I117V/K70R/L54V/L99Q/M102K/N193R/P142E/Q151K/Q38R/Q45L/V71I/Y165I)
# T1 construct: His tag (inferred from IMAC purification); made in house; host or cells: E. coli
# Assay: Thermal shift profiles (Thermofluor assay), NLuc
# Assay type: binding
# Design: unit of the concentration uncertain
# Details: compound 100 (unit uncertain); for Thermofluor NLuc, ATP: ATP (2 mM)
# Description: Thermal stabilization of proteins in the presence of the ligands were determined using Thermofluor technique. MicroAmp optical 384-well plates (Applied Biosystems by Life Technologies), ViiA 7 real-time PCR instrument (Applied Biosystems by Life Technologies) and SYPRO Orange (Life Technologies) were used to test the samples. […]. Proteins were added to the 384-well plate first followed by the compounds. Samples were incubated for 10 mins at room temperature and protected from light. SYPRO Orange dye was diluted to 50x from 5000x stock in a PBS buffer, and 4 µL dye was added to the each well using a multi-channel pipette. The plate was sealed with a MicroAmp optical adhesive film, centrifuged at 1500 RPM for 2 min, and then loaded onto the ViiA 7 real–time PCR instrument for fluorescence intensity measurements upon heating the sample from 25 to 95 °C at 1 °C/min increments. Data was exported to excel, fluorescence intensity data and its first derivative were normalized and plotted using GraphPad Prism to determine Tm. See Supplementary Table 3 for additional details.
# Supplementary Figure 6. Comparison of SDR and Thermofluor analysis of […]
# Temperature °C Temperature °C […]
# Supplementary Table 3. Protocol for Thermofluor assay
# Supplementary Table 3: Protocol for Therm ofluor assay
# Sequence Param eter Value Description […]
# 3 Incubation 10 m ins Room tem perature, protected from light
# 4 Dye 10X Sypro Orange dye in PBS added to the sam ple
# 5 Centrifugation 2 m in Centrifuge for 2 m in at 1500 RPM at RT
# 6 Read ViiA7 Read the therm al unfolding of the protein with ViiA7 real-tim e PCR system
# 4 Prepare 50X dye in PBS: 1 μL Sypro Orange 5000X (Life Technologies), 99 μL ddH2O. Add 4 μL to each well Read the m elting tem perature from 25 to 95 °C using ViiA 7 real tim e PCR instrum ent by following the below instructions Perform therm al denaturation in 384-well assay plate
# (i) Place the assay plate into the Applied Biosystem s ViiA7 real-tim e PCR instrum ent and open the ViiA7 RUO software.
# Under Experim ental Properties, select the following param eters: Set up: […] (20 μl), Experim ent type: MELT CURVE, Reagents used to detect target sequence: OTHER, Ram p Speed: […]
# (ii) Select the Define tab on the left, then select the following param eters: Target nam e: TARGET 1, Reporter: ROX, 6 Quencher: NONE, Passive Reference: NONE
# (iii) Select the Assign tab on the left, then perform the following actions: Highlight all 384 wells in the assay plate and check the box next to ‘Target 1’ on the top left of the plate layout. Note: check the ‘Sam ple’ box on the lower left.
# (iv) Select the Run Method tab on the left, then m ake the following changes to the default Melt Curve profile: Delete Step 2 of the default cycle, change run m ethod to “Step and Hold” with a 1:00 tim e, set the following tem peratures: an initial 2:00 hold at 25 °C (4 °C), ram ping up in increm ents of 1 ° C to a final tem perature of 95 °C (with a 2:00 hold), click on all three cam eras to activate fluorescence detection throughout the experim ent, and Select total volum e per well of 20 μl
# (v) Click on the RUN tab to the left to initiate therm al denaturation.
# T1 sequence (Q9GV45 other isoform, or with tags, fused parts or gaps with the stated changes): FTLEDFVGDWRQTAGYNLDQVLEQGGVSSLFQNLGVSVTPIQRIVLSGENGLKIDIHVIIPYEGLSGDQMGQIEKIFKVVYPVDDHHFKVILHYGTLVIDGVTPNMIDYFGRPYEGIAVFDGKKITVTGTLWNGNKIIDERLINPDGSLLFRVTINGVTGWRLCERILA
compound,measurement,setting,value
CC(CNC(=O)C1CCN(C(=O)c2ncn3c2COC(c2ccccc2)C3)CC1)c1ccccc1 (stereo not drawn) [NCGC 00449795],"Thermofluor NLuc, No ATP",20.000 °C,1
same,"Thermofluor NLuc, ATP",20.000 °C,0.97
same,"Thermofluor NLuc, No ATP",20.993 °C,0.711
same,"Thermofluor NLuc, ATP",20.993 °C,0.992
same,"Thermofluor NLuc, No ATP",21.987 °C,0.647
same,"Thermofluor NLuc, ATP",21.987 °C,1
same,"Thermofluor NLuc, No ATP",22.980 °C,0.606
same,"Thermofluor NLuc, ATP",22.980 °C,0.993
same,"Thermofluor NLuc, No ATP",23.974 °C,0.589
same,"Thermofluor NLuc, ATP",23.974 °C,0.974
same,"Thermofluor NLuc, No ATP",24.967 °C,0.561
same,"Thermofluor NLuc, ATP",24.967 °C,0.95
same,"Thermofluor NLuc, No ATP",25.960 °C,0.532
same,"Thermofluor NLuc, ATP",25.960 °C,0.929
same,"Thermofluor NLuc, No ATP",26.954 °C,0.532
same,"Thermofluor NLuc, ATP",26.954 °C,0.916
same,"Thermofluor NLuc, No ATP",27.947 °C,0.499
same,"Thermofluor NLuc, ATP",27.947 °C,0.908
same,"Thermofluor NLuc, No ATP",28.940 °C,0.462
same,"Thermofluor NLuc, ATP",28.940 °C,0.904
same,"Thermofluor NLuc, No ATP",29.934 °C,0.421
same,"Thermofluor NLuc, ATP",29.934 °C,0.9
same,"Thermofluor NLuc, No ATP",30.927 °C,0.383
same,"Thermofluor NLuc, ATP",30.927 °C,0.894
same,"Thermofluor NLuc, No ATP",31.921 °C,0.366
same,"Thermofluor NLuc, ATP",31.921 °C,0.886
same,"Thermofluor NLuc, No ATP",32.914 °C,0.333
same,"Thermofluor NLuc, ATP",32.914 °C,0.878
same,"Thermofluor NLuc, No ATP",33.907 °C,0.327
same,"Thermofluor NLuc, ATP",33.907 °C,0.87
same,"Thermofluor NLuc, No ATP",34.901 °C,0.309
same,"Thermofluor NLuc, ATP",34.901 °C,0.863
same,"Thermofluor NLuc, No ATP",35.894 °C,0.276
same,"Thermofluor NLuc, ATP",35.894 °C,0.856
same,"Thermofluor NLuc, No ATP",36.887 °C,0.231
same,"Thermofluor NLuc, ATP",36.887 °C,0.849
same,"Thermofluor NLuc, No ATP",37.881 °C,0.229
same,"Thermofluor NLuc, ATP",37.881 °C,0.841
same,"Thermofluor NLuc, No ATP",38.874 °C,0.176
same,"Thermofluor NLuc, ATP",38.874 °C,0.833
same,"Thermofluor NLuc, No ATP",39.868 °C,0.201
same,"Thermofluor NLuc, ATP",39.868 °C,0.827
same,"Thermofluor NLuc, No ATP",40.861 °C,0.184
same,"Thermofluor NLuc, ATP",40.861 °C,0.824
same,"Thermofluor NLuc, No ATP",41.854 °C,0.161
same,"Thermofluor NLuc, ATP",41.854 °C,0.821
same,"Thermofluor NLuc, No ATP",42.848 °C,0.108
same,"Thermofluor NLuc, ATP",42.848 °C,0.817
same,"Thermofluor NLuc, No ATP",43.841 °C,0.096
same,"Thermofluor NLuc, ATP",43.841 °C,0.812
same,"Thermofluor NLuc, No ATP",44.835 °C,0.098
same,"Thermofluor NLuc, ATP",44.835 °C,0.805
same,"Thermofluor NLuc, No ATP",45.828 °C,0.096
same,"Thermofluor NLuc, ATP",45.828 °C,0.794
same,"Thermofluor NLuc, No ATP",46.821 °C,0.034
same,"Thermofluor NLuc, ATP",46.821 °C,0.779
same,"Thermofluor NLuc, No ATP",47.815 °C,0.027
same,"Thermofluor NLuc, ATP",47.815 °C,0.76
same,"Thermofluor NLuc, No ATP",48.808 °C,0.048
same,"Thermofluor NLuc, ATP",48.808 °C,0.734
same,"Thermofluor NLuc, No ATP",50.795 °C,0.006
same,"Thermofluor NLuc, ATP",50.795 °C,0.656
same,"Thermofluor NLuc, No ATP",51.788 °C,0.009
same,"Thermofluor NLuc, ATP",51.788 °C,0.601
same,"Thermofluor NLuc, No ATP",52.782 °C,0
same,"Thermofluor NLuc, ATP",52.782 °C,0.533
same,"Thermofluor NLuc, No ATP",53.775 °C,0.03
same,"Thermofluor NLuc, ATP",53.775 °C,0.451
same,"Thermofluor NLuc, No ATP",54.768 °C,0.027
same,"Thermofluor NLuc, ATP",54.768 °C,0.357
same,"Thermofluor NLuc, No ATP",55.762 °C,0.051
same,"Thermofluor NLuc, ATP",55.762 °C,0.257
same,"Thermofluor NLuc, No ATP",56.755 °C,0.14
same,"Thermofluor NLuc, ATP",56.755 °C,0.161
same,"Thermofluor NLuc, No ATP",57.748 °C,0.19
same,"Thermofluor NLuc, ATP",57.748 °C,0.079
same,"Thermofluor NLuc, No ATP",58.742 °C,0.3
same,"Thermofluor NLuc, ATP",58.742 °C,0.022
same,"Thermofluor NLuc, No ATP",59.735 °C,0.413
same,"Thermofluor NLuc, ATP",59.735 °C,0
same,"Thermofluor NLuc, No ATP",60.729 °C,0.505
same,"Thermofluor NLuc, ATP",60.729 °C,0.015
same,"Thermofluor NLuc, No ATP",61.722 °C,0.61
same,"Thermofluor NLuc, ATP",61.722 °C,0.065
same,"Thermofluor NLuc, No ATP",62.715 °C,0.667
same,"Thermofluor NLuc, ATP",62.715 °C,0.143
same,"Thermofluor NLuc, No ATP",63.709 °C,0.726
same,"Thermofluor NLuc, ATP",63.709 °C,0.238
same,"Thermofluor NLuc, No ATP",65.695 °C,0.759
same,"Thermofluor NLuc, ATP",65.695 °C,0.437
same,"Thermofluor NLuc, No ATP",66.689 °C,0.785
same,"Thermofluor NLuc, ATP",66.689 °C,0.525
same,"Thermofluor NLuc, No ATP",68.676 °C,0.749
same,"Thermofluor NLuc, ATP",68.676 °C,0.658
same,"Thermofluor NLuc, No ATP",69.669 °C,0.746
same,"Thermofluor NLuc, ATP",69.669 °C,0.703
same,"Thermofluor NLuc, No ATP",70.662 °C,0.73
same,"Thermofluor NLuc, ATP",70.662 °C,0.736
same,"Thermofluor NLuc, No ATP",71.656 °C,0.72
same,"Thermofluor NLuc, ATP",71.656 °C,0.76
same,"Thermofluor NLuc, No ATP",72.649 °C,0.696
same,"Thermofluor NLuc, ATP",72.649 °C,0.778
same,"Thermofluor NLuc, No ATP",73.643 °C,0.686
same,"Thermofluor NLuc, ATP",73.643 °C,0.793
same,"Thermofluor NLuc, No ATP",74.636 °C,0.672
same,"Thermofluor NLuc, ATP",74.636 °C,0.807
same,"Thermofluor NLuc, No ATP",75.629 °C,0.623
same,"Thermofluor NLuc, ATP",75.629 °C,0.82
